In patent US20250114362A1, “METHODS AND COMPOSITIONS FOR TREATMENT OF CUTANEOUS PROLIFERATIVE DISORDERS AND OTHER SKIN CONDITIONS” (ASYMMETRIC THERAPEUTICS, LLC, priority 2022, published 2025):
Several values for one entry are separate records, joined by “and”; a condition that tells them apart may be missing. Identical values can stand only once.

Tests used:
HaCaT cells = assay: M5 cocktail psoriasis-like HaCaT keratinocyte model, live and dead cell numbers by MultiTox-Glo Multiplex Cytotoxicity Assay
Procedure: Immortalized human keratinocytes (HaCaT cells) purchased from AddexBio (San Diego, CA) were maintained in vitro in Dulbecco's modified Eagle's medium (DMEM) supplemented with 10% Fetal Bovine Serum (FBS) and antibiotics (100 U/mL penicillin and […] streptomycin) and cultured in an incubator with 5% CO2 at 37° C.
HaCaT cells were seeded at approximately 50% density (1×10^4 cells/well) and after 16 h the medium was replaced with 50 μL of pre-treatment medium containing different concentrations of allopurinol (0, 0.5, or 3 mM) or methotrexate (1 μM) and placed back into the incubator. Treatment media was prepared using standard media containing vehicle control (PBS) or M5 cocktail.
Other HaCaT cells were incubated in vitro for 72 hours in the presence of a M5 composition that also included 1.0 μM methotrexate, 0.5 mM allopurinol, 3.0 mM allopurinol, 0.5 mM oxypurinol, or 3.0 mM oxypurinol.
The number of live and dead cells were determined by the MultiTox-Glo Multiplex Cytotoxicity Assay (Promega, Madison WI) according to the manufacturer's protocol. A dilution series of cells was used to generate a standard curve for calculation of cell number in each well. The total number of cells was the sum of the live and dead cells.

Ki67 = assay: MatTek PSE culture system, Ki67 level by PCR; assay type: cell-based, human; conditions: 100 nM
Procedure: The level of Ki67 in the MatTek tissue culture system was also determined. Ki67 is a nuclear protein and a replication marker. The level of Ki67 was determined by polymerase chain reaction (PCR) analysis with standard protocols. The relative levels are normalized with respect to the measured Ki67 level of the control at Day 0, which is adjusted to 1.0.
(§1) Other markers of cell proliferation were also measured, namely (protein p21), and four markers of inflammatory signaling (IL17A, IL23A, TNF-α, and transforming growth factor beta (TGF-β)) in the MatTek PSE culture system after two days of treatment were also determined. Ki67 is a nuclear protein and a replication marker. The marker levels were determined by isolating total RNA by a Promega SV96 Total RNA Isolation Vacuum System (Promega, Madison, WI) according to the manufacturer's instructions. The total RNA was reverse transcribed using an ABI High Capacity cDNA reverse transcription kit (Applied Biosystems, Foster City, CA). Quantitative real-time polymerase chain reaction (qPCR) was performed with the use of a SYBR Green PCR Master Mix (Applied Biosystems) according to the manufacturer's protocol and amplified on a StepOnePlus Real-Time PCR System.

p21 = assay: MatTek PSE culture system, p21 mRNA by qPCR; assay type: cell-based, human; conditions: 100 nM; after two days of treatment
Procedure: as §1

IL17A = assay: MatTek PSE culture system, IL17A mRNA by qPCR; assay type: cell-based, human; conditions: 100 nM; after two days of treatment
Procedure: as §1

IL23A = assay: MatTek PSE culture system, IL23A mRNA by qPCR; assay type: cell-based, human; conditions: 100 nM; after two days of treatment
Procedure: as §1

TNF-α = assay: MatTek PSE culture system, TNF-α mRNA by qPCR; assay type: cell-based, human; conditions: 100 nM; after two days of treatment
Procedure: as §1

TGF-β = assay: MatTek PSE culture system, TGF-β mRNA by qPCR; assay type: cell-based, human; conditions: 100 nM; after two days of treatment
Procedure: as §1

p21/Ki67 = assay: MatTek PSE culture system, ratio of p21 to Ki67 mRNA levels; assay type: cell-based, human; conditions: after two days of treatment; treatment compositions of Table 5
Procedure: Ki67 is a replication marker for cells and the lower the value, the lower the replication rate. P21 is a protein which is a marker for the inhibition of cell proliferation. Thus, an increased ratio of P21/Ki67 indicates decreased cell replication. FIG. 9 illustrates this ratio under several conditions as described in Example 2.
as §1
To highlight effects on cell proliferation, the ratio of p21 to Ki67 mRNA levels were calculated, with the results being shown in FIG. 9.

[1] = tested on: MatTek human PSE culture system (SOR-300-FT); assay: MatTek human PSE culture system, tissue layer thickness and histology; conditions: 100 nM
Excerpt: The thickness of each of the three tissue layers of skin was monitored and measured after two days and after six days of exposure to the treatment medium in a blinded fashion by a board-certified and nationally respected pathologist.

[2] = 1.0 μM, 0 hours (baseline), M5 cocktail, ± standard deviation
[3] = 1.0 μM, 0 hours (baseline), relative to 9177 live cells at zero hours
[4] = 1.0 μM, 48 hours, M5 cocktail, ± standard deviation
[5] = 1.0 μM, 48 hours, relative to 9177 live cells at zero hours
[6] = 1.0 μM, 72 hours, M5 cocktail, ± standard deviation
[7] = 1.0 μM, 72 hours, relative to 9177 live cells at zero hours

CN(Cc1cnc2nc(N)nc(N)c2n1)c1ccc(C(=O)N[C@@H](CCC(=O)O)C(=O)O)cc1 [methotrexate]
Cell Counts, 0 hours, Dead (HaCaT cells; [2]): 801 ± 19
Cell Counts, 0 hours, Live (HaCaT cells; [2]): 9177 ± 90
Cell Ratios, 0 hours, Dead (HaCaT cells; [3]): 0.087
Cell Ratios, 0 hours, Total (HaCaT cells; [3]): 1.087
Cell Counts, 48 hours, Dead (HaCaT cells; [4]): 4826 ± 464
Cell Counts, 48 hours, Total (HaCaT cells; [4]): 11194 ± 545
Cell Ratios, 48 hours, Dead (HaCaT cells; [5]): 0.526
Cell Ratios, 48 hours, Total (HaCaT cells; [5]): 1.220
Cell Counts, 72 hours, Dead (HaCaT cells; [6]): 6300 ± 289
Cell Counts, 72 hours, Total (HaCaT cells; [6]): 11587 ± 593
Cell Ratios, 72 hours, Dead (HaCaT cells; [7]): 0.69 and 0.686
Cell Ratios, 72 hours, Total (HaCaT cells; [7]): 1.26 and 1.263

O=c1[nH]c(=O)c2c[nH]nc2[nH]1 [oxypurinol]
Cell Counts, 0 hours, Live (HaCaT cells; 0.5 mM, 0 hours (baseline), M5 cocktail, ± standard deviation): 9177 ± 90
Cell Ratios, 0 hours, Total (HaCaT cells; 0.5 mM, 0 hours (baseline), relative to 9177 live cells at zero hours): 1.087
Cell Counts, 48 hours, Total (HaCaT cells; 0.5 mM, 48 hours, M5 cocktail, ± standard deviation): 14960 ± 100
Cell Ratios, 48 hours, Total (HaCaT cells; 0.5 mM, 48 hours, relative to 9177 live cells at zero hours): 1.630
Cell Counts, 72 hours, Total (HaCaT cells; 0.5 mM, 72 hours, M5 cocktail, ± standard deviation): 17036 ± 222
Cell Ratios, 72 hours, Total (HaCaT cells; 0.5 mM, 72 hours, relative to 9177 live cells at zero hours): 1.86 and 1.856
Cell Counts, 0 hours, Live (HaCaT cells; 3.0 mM, 0 hours (baseline), M5 cocktail, ± standard deviation): 9177 ± 90
Cell Ratios, 0 hours, Total (HaCaT cells; 3.0 mM, 0 hours (baseline), relative to 9177 live cells at zero hours): 1.087
Cell Counts, 48 hours, Total (HaCaT cells; 3.0 mM, 48 hours, M5 cocktail, ± standard deviation): 13069 ± 142
Cell Ratios, 48 hours, Total (HaCaT cells; 3.0 mM, 48 hours, relative to 9177 live cells at zero hours): 1.424
Cell Counts, 72 hours, Total (HaCaT cells; 3.0 mM, 72 hours, M5 cocktail, ± standard deviation): 14228 ± 282
Cell Ratios, 72 hours, Total (HaCaT cells; 3.0 mM, 72 hours, relative to 9177 live cells at zero hours): 1.55
Cell Counts, 0 hours, Dead (HaCaT cells; human, 0 h, 0.5 mM): 801 ± 19
Cell Ratios, 0 hours, Dead (HaCaT cells; human, 0 h, 0.5 mM): 0.087
Cell Counts, 0 hours, Dead (HaCaT cells; human, 0 h, 3 mM): 801 ± 19
Cell Ratios, 0 hours, Dead (HaCaT cells; human, 0 h, 3 mM): 0.087
Cell Counts, 48 hours, Dead (HaCaT cells; human, 48 h, 0.5 mM): 2937 ± 65
Cell Ratios, 48 hours, Dead (HaCaT cells; human, 48 h, 0.5 mM): 0.320
Cell Counts, 48 hours, Dead (HaCaT cells; human, 48 h, 3 mM): 2508 ± 124
Cell Ratios, 48 hours, Dead (HaCaT cells; human, 48 h, 3 mM): 0.273
Cell Counts, 72 hours, Dead (HaCaT cells; human, 72 h, 0.5 mM): 4761 ± 200
Cell Counts, 72 hours, Dead (HaCaT cells; human, 72 h, 3 mM): 3691 ± 244

Vitamin D
Relative Ki67 Level (Ki67; Day 6, normalized to control at Day 0 = 1.0): 1.99
Relative Expression Levels, Ki67 (Ki67; after two days of treatment): 0.34 ± 0.01
Relative Expression Levels, p21 (p21): 5.10 ± 0.70
Relative Expression Levels, IL17A (IL17A): 0.06 ± 0.03
Relative Expression Levels, IL23A (IL23A): 0.45 ± 0.07
Relative Expression Levels, TNF-α (TNF-α): 0.48 ± 0.17
Relative Expression Levels, TGF-β (TGF-β): 0.35 ± 0.09
p21/Ki67 ratio (mRNA levels) (p21/Ki67): markedly increased
Layer Thickness, Dermis ([1]; 2 days): 0.25 mm
Layer Thickness, Epidermis ([1]; 2 days): 0.15 mm
Layer Thickness, Stratum Corneum ([1]; 2 days): 0.05 mm
Layer Thickness, Dermis ([1]; 6 days): 0.2 mm
Layer Thickness, Epidermis ([1]; 6 days): 0.2 mm
Layer Thickness, Stratum Corneum ([1]; 6 days): 0.2 mm
